Consider nine molecules from PubChem BioAssay (NCI).

The structures appear in SMILES notation.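 Exposure lasted 48 hours, with cells grown in 96-well plates and compounds tested at five concentrations. Abbreviation: GI50, concentration required for 50% inhibition of growth. TGI is the concentration that stops growth completely.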

Some test systems named below: RPMI-8226 leukemia; SK-MEL-5 melanoma; OVCAR-3 ovarian; NCI/ADR-RES ovarian; SF-268 CNS; IGROV1 ovarian; MALME-3M melanoma; CAKI-1 renal; SNB-75 CNS; TK-10 renal.
Holding throughout (assay): NCI anticancer screen, dose series, 48 h

On to `OCc1ccc(N2CCc3cccc(F)c3C2)cc1Cl`, for which the TGI in the experiment with RPMI-8226 leukemia is 20.5 µM; in the experiment with SK-MEL-5 melanoma, 35.4 µM; with OVCAR-3 ovarian, 0.0505 µM; with NCI/ADR-RES ovarian it was 37.1 µM; in the experiment on SF-268 CNS, over 89.4 µM; in the experiment on IGROV1 ovarian it was 0.101 µM. Further, the TGI is 63.6 µM in the experiment on MALME-3M melanoma, 21.8 µM with CAKI-1 renal and 47.7 µM in the experiment on SNB-75 CNS. The GI50 in the experiment on SK-MEL-5 melanoma was 14.9 µM; with OVCAR-3 ovarian it was under 0.0169 µM; in the experiment on NCI/ADR-RES ovarian it was 7.68 µM; in the experiment with SF-268 CNS, 24.5 µM; with IGROV1 ovarian it was 0.025 µM; with MALME-3M melanoma, 24.1 µM. In addition, the GI50 with CAKI-1 renal was 1.19 µM; in the experiment on SNB-75 CNS, 13.9 µM.

With `O=C(O)c1ccc(CI)cc1`, the TGI was found to be 45.8 µM in the experiment with RPMI-8226 leukemia; 31.3 µM in the experiment with SK-MEL-5 melanoma; 23.3 µM in the experiment on OVCAR-3 ovarian; 34.8 µM with NCI/ADR-RES ovarian; 39.8 µM in the experiment on SF-268 CNS; 38.2 µM in the experiment with IGROV1 ovarian. The TGI came out at 23.3 µM in the experiment on MALME-3M melanoma, 27.6 µM in the experiment with CAKI-1 renal and 49.9 µM with SNB-75 CNS.

Take `COc1ccc2cc(/C=C/C(=O)c3ccc(Cl)cc3Cl)ccc2c1`: the GI50 in the experiment with TK-10 renal is 77.9 µM; with RPMI-8226 leukemia, 16.2 µM; with SK-MEL-5 melanoma, 20.9 µM; with OVCAR-3 ovarian it was 26.2 µM; with NCI/ADR-RES ovarian it was 31 µM; in the experiment on SF-268 CNS it was 32.9 µM. For the same molecule, the GI50 with IGROV1 ovarian is 42.9 µM; with MALME-3M melanoma, 27 µM; in the experiment on CAKI-1 renal it was 42.7 µM. The TGI in the experiment with TK-10 renal is over 100 µM; in the experiment with RPMI-8226 leukemia, 47.2 µM; in the experiment with SK-MEL-5 melanoma, 45.2 µM; with OVCAR-3 ovarian it was over 100 µM; in the experiment on NCI/ADR-RES ovarian, 96.5 µM; with SF-268 CNS it was over 100 µM. Moreover, the TGI was over 100 µM with IGROV1 ovarian, 73.9 µM in the experiment with MALME-3M melanoma and 89.1 µM in the experiment on CAKI-1 renal.

As to `CC[n+]1oc(C(=O)c2ccc(Cl)cc2)c(-c2ccccc2)c1-c1ccccc1.[Cl][Fe]([Cl])([Cl])[Cl]`, the GI50 was 33.4 µM in the experiment on TK-10 renal; 19.6 µM in the experiment with RPMI-8226 leukemia; 19.5 µM in the experiment with SK-MEL-5 melanoma; 23.1 µM with OVCAR-3 ovarian; over 100 µM in the experiment with NCI/ADR-RES ovarian; 36.1 µM in the experiment on SF-268 CNS. The GI50 with MALME-3M melanoma is 39.7 µM; with SNB-75 CNS, 30.4 µM. The TGI with TK-10 renal was over 100 µM; in the experiment on RPMI-8226 leukemia it was 54.2 µM; with SK-MEL-5 melanoma it was 45.8 µM; in the experiment with OVCAR-3 ovarian, 56.2 µM; in the experiment with NCI/ADR-RES ovarian, over 100 µM; in the experiment on SF-268 CNS, over 100 µM. In addition, the TGI with MALME-3M melanoma and with SNB-75 CNS was over 100 µM in each case.

Regarding `Cn1c(-c2c(N)n(Nc3cccc(Cl)c3)c3nc(C#N)c(C#N)nc23)nc2ccccc21`, the GI50 with TK-10 renal was 12.9 µM; in the experiment on RPMI-8226 leukemia, 3.53 µM; in the experiment with SK-MEL-5 melanoma, 7.41 µM; with OVCAR-3 ovarian it was 6.96 µM; in the experiment with NCI/ADR-RES ovarian, 0.837 µM; with SF-268 CNS, 10 µM. Moreover, the values for the GI50 in the experiment with IGROV1 ovarian, in the experiment on CAKI-1 renal and in the experiment with SNB-75 CNS were 1.27 µM, 7.29 µM and 8.33 µM, respectively. Also, the TGI with TK-10 renal was over 50 µM; in the experiment with RPMI-8226 leukemia, over 50 µM; with SK-MEL-5 melanoma, 16.6 µM; in the experiment with OVCAR-3 ovarian, 33.5 µM; in the experiment on NCI/ADR-RES ovarian, 14.1 µM; with SF-268 CNS it was 35.6 µM. The TGI with IGROV1 ovarian was determined as 12.6 µM; with CAKI-1 renal, 43.2 µM; with SNB-75 CNS it was 35.1 µM.

For `COc1cc2c(c(OC)c1OC)-c1ncc3c(OC)c(OC)c(OC)cc3c1C2`, the GI50 is 22.5 µM with TK-10 renal; 19 µM in the experiment with RPMI-8226 leukemia; 16 µM with SK-MEL-5 melanoma; 21.5 µM in the experiment with OVCAR-3 ovarian; 15.6 µM in the experiment on NCI/ADR-RES ovarian; 34.1 µM with IGROV1 ovarian. Also, the GI50 with CAKI-1 renal was 23.9 µM; in the experiment with SNB-75 CNS, over 100 µM. Further, the TGI worked out at 63.5 µM with TK-10 renal; 54.9 µM in the experiment on RPMI-8226 leukemia; 30.5 µM in the experiment on SK-MEL-5 melanoma; 50.9 µM in the experiment on OVCAR-3 ovarian; 38 µM in the experiment on NCI/ADR-RES ovarian; 93 µM with IGROV1 ovarian. The figures for the TGI with CAKI-1 renal and with SNB-75 CNS were 83.5 µM and over 100 µM, respectively.

For `O=C(Nc1cc(C(F)(F)F)ccc1Cl)c1ccc(NC2=C(Cl)C(=O)N(Cc3ccccc3)C2=O)cc1`, the GI50 is 24.7 µM in the experiment with TK-10 renal; 2.65 µM with RPMI-8226 leukemia; 18.6 µM in the experiment with SK-MEL-5 melanoma; 19.1 µM with OVCAR-3 ovarian; 62.7 µM with NCI/ADR-RES ovarian; 32.7 µM in the experiment with SF-268 CNS. Besides, the GI50 is 1.99 µM with IGROV1 ovarian, 42.6 µM in the experiment on CAKI-1 renal and 56.1 µM in the experiment with SNB-75 CNS. The TGI with TK-10 renal is 62.3 µM; in the experiment on RPMI-8226 leukemia, 8.51 µM; in the experiment on SK-MEL-5 melanoma, 60.4 µM; in the experiment with OVCAR-3 ovarian, 46.1 µM; in the experiment with NCI/ADR-RES ovarian, over 100 µM; in the experiment with SF-268 CNS it was over 100 µM. Also, the TGI was 6.41 µM in the experiment with IGROV1 ovarian, over 100 µM with CAKI-1 renal and over 100 µM in the experiment with SNB-75 CNS.

Turning to `COc1ccc(-c2cs/c(=N\N=C\c3ccc(O)cc3O)n2/N=C/c2ccc(O)cc2O)cc1`, the GI50 with TK-10 renal is 2.46 µM; in the experiment on SK-MEL-5 melanoma it was 1.69 µM; in the experiment on OVCAR-3 ovarian, 1.75 µM; in the experiment with NCI/ADR-RES ovarian it was 2.02 µM; in the experiment on SF-268 CNS, 2.36 µM; in the experiment on IGROV1 ovarian, 2.67 µM. Further, the values for the GI50 in the experiment with MALME-3M melanoma and in the experiment with SNB-75 CNS were 2.2 µM and 1.58 µM, respectively. In addition, the TGI in the experiment with TK-10 renal was found to be 5.1 µM; with SK-MEL-5 melanoma it was 3.07 µM; in the experiment on OVCAR-3 ovarian, 3.67 µM; in the experiment on NCI/ADR-RES ovarian, 5.35 µM; in the experiment with SF-268 CNS, 6.13 µM; with IGROV1 ovarian it was 6.5 µM. Besides, the TGI with MALME-3M melanoma came to 4.79 µM; in the experiment on SNB-75 CNS it was 3.08 µM.

On to `CCOC(=O)C(Cc1c[nH]c2c(N(CCO)CCO)cccc12)(NC(C)=O)C(=O)OCC`, for which the GI50 is over 1000 µM with TK-10 renal; 323 µM in the experiment on SK-MEL-5 melanoma; 270 µM with OVCAR-3 ovarian; over 1000 µM in the experiment on NCI/ADR-RES ovarian; over 1000 µM in the experiment on SF-268 CNS; 643 µM with IGROV1 ovarian. For the same molecule, the GI50 in the experiment with MALME-3M melanoma is 202 µM; in the experiment with SNB-75 CNS, 50.9 µM. Moreover, the TGI in the experiment on TK-10 renal was over 1000 µM; in the experiment with SK-MEL-5 melanoma, over 1000 µM; in the experiment on OVCAR-3 ovarian, 873 µM; with NCI/ADR-RES ovarian it was over 1000 µM; with SF-268 CNS it was over 1000 µM; with IGROV1 ovarian, over 1000 µM. Besides, the figures for the TGI in the experiment on MALME-3M melanoma and in the experiment on SNB-75 CNS were over 1000 µM and 249 µM, respectively.
